Reference: publication PMC7663272, “Discovery of Tricyclic Pyranochromenone as Novel Bruton’s Tyrosine Kinase Inhibitors with In Vivo Antirheumatic Activity” (International Journal of Molecular Sciences, 2020)

Columns and labels:
CYP3A4 = biological target: T1, CYP3A4 (Homo sapiens, UniProt P08684); test: P450-Glo CYP inhibition assay, CYP3A4; type: in vitro ADME
T1 construct: purchased Promega V9920
Protocol: (§1) The potential for CYP450 inhibition (CYP1A2, 2C9, 2C19, 2D6, and […]) was assessed using Promega P450-Glo^TM CYP450 assay systems. Luciferin-ME served as the substrate for CYP1A2, and the inhibitor α-naphthoflavone was used as a positive control. Luciferin-H was used as the substrate for CYP2C9, and the inhibitor sulfaphenazole was used as a positive control. Luciferin-H EGE was selected as the substrate for CYP2C19, whereas the inhibitor amitriptyline served as a positive control. Luciferin-ME EGE was used as the substrate for CYP2D6, whereas the inhibitor quinidine served as a positive control. Luciferin-BE was used as the substrate for CYP3A4, whereas the inhibitor ketoconazole was used as a positive control. The assays were performed using the excitation and emission wavelengths recommended by the manufacturer. Briefly, a CYP enzyme and a P450-Glo™ substrate were combined in potassium phosphate (0.1 M KPO4) buffer, with or without a test compound of interest, and […]. The reaction was initiated by adding two volumes of 2 times concentrated NADPH regeneration system. […] Luminescence was subsequently measured using a Tecan Infinite M1000 PRO microplate reader (Tecan Group Ltd., Switzerland). The percent inhibition was calculated relative to that of the positive control at a fixed concentration. […]

ERBB2 = biological target: T2, ERBB2 (Homo sapiens, UniProt P04626); test: HotSpot kinase enzymatic assay, ERBB2; type: biochemical; settings: mean of two experiments
T2 construct: purchased Reaction Biology Corporation
T2 sequence (P04626 23-1255): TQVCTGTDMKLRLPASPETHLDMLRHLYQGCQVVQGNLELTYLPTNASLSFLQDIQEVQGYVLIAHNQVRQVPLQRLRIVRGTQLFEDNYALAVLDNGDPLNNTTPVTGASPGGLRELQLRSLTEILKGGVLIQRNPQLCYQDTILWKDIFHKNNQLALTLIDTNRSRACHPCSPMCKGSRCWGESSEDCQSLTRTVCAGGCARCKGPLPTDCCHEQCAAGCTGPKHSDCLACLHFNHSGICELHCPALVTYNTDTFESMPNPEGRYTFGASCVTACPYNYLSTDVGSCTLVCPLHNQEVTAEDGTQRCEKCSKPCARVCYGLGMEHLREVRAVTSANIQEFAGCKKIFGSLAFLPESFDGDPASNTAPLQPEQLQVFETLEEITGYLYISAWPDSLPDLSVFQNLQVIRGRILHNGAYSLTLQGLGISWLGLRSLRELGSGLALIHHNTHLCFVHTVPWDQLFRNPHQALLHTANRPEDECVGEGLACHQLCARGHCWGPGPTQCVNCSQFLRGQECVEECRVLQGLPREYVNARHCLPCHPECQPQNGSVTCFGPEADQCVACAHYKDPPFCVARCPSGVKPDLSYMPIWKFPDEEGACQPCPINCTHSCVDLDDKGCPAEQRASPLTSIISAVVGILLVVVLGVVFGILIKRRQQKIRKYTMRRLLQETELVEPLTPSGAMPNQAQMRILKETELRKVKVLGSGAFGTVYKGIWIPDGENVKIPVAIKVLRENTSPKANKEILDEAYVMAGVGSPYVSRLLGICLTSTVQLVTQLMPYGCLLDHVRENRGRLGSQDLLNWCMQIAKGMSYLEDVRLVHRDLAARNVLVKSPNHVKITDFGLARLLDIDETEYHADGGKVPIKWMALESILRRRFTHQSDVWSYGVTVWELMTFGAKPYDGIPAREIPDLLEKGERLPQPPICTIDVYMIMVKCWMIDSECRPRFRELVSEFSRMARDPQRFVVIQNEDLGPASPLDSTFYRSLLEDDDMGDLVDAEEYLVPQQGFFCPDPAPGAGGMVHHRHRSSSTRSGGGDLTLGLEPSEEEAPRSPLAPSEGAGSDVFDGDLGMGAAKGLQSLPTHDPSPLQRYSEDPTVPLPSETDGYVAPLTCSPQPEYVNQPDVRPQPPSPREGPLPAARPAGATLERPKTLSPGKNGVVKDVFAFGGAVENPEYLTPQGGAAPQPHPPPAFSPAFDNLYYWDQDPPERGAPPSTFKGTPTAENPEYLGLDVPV
Protocol: (§2) Therefore, efforts have focused on developing new compounds with good selectivity profiles. […] Compound 8 was selective against BTK. The biochemical activities of compound 8 differed among TEC family kinases. […] The inhibitory potential of compound 8 differed between members of the EGFR family. […] The inhibitory activity of compound 8 against JAK3 was also low.
(§3) Kinase enzymatic assays for BTK, BMX, TXK, TEC, ITK, EGFR, ERBB2, ERBB4, and JAK3 were performed at Reaction Biology Corporation (www.reactionbiology.com, Malvern, PA, USA) using the HotSpot assay platform. Briefly, specific kinase/substrate pairs and the required cofactors were prepared in a reaction buffer comprising 20 mM HEPES (pH 7.5), 10 mM MgCl2, 1 mM EGTA, 0.02% Brij35, 0.02 mg/mL BSA, 0.1 mM Na3VO4, 2 mM DTT, and 1% DMSO. The compounds were added to the reaction mixture and allowed to incubate. Approximately 20 min later, a mixture of ATP (Sigma-Aldrich, St. Louis, MO, USA) and ^33P ATP (PerkinElmer, Waltham, MA, USA) was added to the reaction mixture at a final concentration of 10 μM. The reactions were performed at room temperature for 120 min; subsequently, the reactions were spotted onto P81 ion exchange filter papers (Whatman Inc., Maidstone, UK). Any unbound phosphate was removed by thoroughly washing the filter papers with 0.75% phosphoric acid. […]

EGFR = biological target: T3, EGFR (Homo sapiens, UniProt P00533); test: HotSpot kinase enzymatic assay, EGFR; type: biochemical
T3 construct: purchased Reaction Biology Corporation
T3 sequence (P00533 25-1210): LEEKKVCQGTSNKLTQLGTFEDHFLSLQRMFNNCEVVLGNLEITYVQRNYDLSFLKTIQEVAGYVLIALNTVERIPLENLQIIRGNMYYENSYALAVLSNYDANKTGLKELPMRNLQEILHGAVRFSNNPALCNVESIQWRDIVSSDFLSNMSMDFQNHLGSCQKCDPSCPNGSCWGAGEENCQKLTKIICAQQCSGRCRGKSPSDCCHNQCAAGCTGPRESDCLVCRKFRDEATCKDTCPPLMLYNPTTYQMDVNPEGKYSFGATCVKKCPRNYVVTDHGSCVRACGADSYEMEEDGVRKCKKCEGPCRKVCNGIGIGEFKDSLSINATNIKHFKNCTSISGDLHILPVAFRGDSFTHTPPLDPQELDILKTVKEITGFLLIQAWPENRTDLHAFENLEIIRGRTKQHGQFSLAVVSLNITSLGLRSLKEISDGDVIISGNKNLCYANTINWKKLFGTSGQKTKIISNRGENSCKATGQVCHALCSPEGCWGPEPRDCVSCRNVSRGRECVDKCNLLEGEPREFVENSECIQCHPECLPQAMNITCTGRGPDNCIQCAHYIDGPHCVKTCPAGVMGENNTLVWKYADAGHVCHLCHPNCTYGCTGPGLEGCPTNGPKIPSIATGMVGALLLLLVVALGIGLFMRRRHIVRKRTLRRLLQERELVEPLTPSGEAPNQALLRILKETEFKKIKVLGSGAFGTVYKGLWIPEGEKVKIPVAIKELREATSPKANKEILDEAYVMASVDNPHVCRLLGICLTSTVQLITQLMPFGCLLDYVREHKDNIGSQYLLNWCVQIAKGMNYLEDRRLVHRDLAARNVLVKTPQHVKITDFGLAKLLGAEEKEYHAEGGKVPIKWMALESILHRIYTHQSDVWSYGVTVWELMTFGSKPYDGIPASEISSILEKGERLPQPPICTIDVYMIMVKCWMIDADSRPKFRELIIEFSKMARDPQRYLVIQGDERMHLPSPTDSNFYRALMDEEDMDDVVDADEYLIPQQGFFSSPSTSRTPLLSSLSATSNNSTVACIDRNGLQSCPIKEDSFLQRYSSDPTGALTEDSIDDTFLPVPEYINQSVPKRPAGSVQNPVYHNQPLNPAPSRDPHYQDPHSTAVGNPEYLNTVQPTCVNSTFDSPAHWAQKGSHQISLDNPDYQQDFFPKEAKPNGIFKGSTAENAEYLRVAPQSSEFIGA
Protocol: as §2, §3

CYP1A2 = biological target: T4, CYP1A2 (Homo sapiens, UniProt P05177); test: P450-Glo CYP inhibition assay, CYP1A2; type: in vitro ADME
T4 construct: purchased Promega V9770
T4 sequence (P05177 1-516): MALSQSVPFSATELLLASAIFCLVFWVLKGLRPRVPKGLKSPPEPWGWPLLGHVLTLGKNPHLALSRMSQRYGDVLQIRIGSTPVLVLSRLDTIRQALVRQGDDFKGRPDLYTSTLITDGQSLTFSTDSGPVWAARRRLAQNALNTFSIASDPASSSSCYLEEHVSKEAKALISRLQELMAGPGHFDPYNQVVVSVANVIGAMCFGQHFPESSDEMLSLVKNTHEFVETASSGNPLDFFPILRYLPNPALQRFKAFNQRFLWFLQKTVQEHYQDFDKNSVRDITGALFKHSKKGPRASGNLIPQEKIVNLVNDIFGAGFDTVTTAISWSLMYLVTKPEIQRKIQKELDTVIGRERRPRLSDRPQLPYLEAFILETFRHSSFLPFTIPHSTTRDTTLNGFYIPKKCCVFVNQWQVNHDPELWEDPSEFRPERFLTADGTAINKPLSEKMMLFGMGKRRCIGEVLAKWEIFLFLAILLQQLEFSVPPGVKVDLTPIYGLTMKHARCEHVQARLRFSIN
Protocol: as §1

TEC = biological target: T5, TEC (Homo sapiens, UniProt P42680); test: HotSpot kinase enzymatic assay, TEC; type: biochemical
T5 construct: purchased Reaction Biology Corporation
T5 sequence (P42680 1-631): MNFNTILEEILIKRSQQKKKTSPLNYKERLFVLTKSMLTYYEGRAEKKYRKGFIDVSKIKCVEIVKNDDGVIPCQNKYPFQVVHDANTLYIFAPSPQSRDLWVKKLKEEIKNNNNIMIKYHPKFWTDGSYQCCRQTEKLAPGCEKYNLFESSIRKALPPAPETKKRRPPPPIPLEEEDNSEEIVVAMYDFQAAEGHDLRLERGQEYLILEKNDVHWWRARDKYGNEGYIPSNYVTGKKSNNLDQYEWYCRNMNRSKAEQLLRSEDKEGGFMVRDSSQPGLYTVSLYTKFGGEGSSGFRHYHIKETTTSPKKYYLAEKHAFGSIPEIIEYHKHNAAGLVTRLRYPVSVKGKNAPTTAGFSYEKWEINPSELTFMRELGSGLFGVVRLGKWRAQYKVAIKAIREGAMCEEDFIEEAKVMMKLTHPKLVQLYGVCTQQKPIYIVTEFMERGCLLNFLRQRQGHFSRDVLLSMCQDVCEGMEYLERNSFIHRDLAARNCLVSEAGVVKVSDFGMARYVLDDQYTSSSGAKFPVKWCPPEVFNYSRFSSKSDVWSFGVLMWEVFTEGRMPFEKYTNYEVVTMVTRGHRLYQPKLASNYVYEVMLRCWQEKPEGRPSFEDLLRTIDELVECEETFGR
Protocol: as §2, §3

[1] = % inhibition of human CYP isozymes at 10 μM

T1 sequence (P08684 whole entry): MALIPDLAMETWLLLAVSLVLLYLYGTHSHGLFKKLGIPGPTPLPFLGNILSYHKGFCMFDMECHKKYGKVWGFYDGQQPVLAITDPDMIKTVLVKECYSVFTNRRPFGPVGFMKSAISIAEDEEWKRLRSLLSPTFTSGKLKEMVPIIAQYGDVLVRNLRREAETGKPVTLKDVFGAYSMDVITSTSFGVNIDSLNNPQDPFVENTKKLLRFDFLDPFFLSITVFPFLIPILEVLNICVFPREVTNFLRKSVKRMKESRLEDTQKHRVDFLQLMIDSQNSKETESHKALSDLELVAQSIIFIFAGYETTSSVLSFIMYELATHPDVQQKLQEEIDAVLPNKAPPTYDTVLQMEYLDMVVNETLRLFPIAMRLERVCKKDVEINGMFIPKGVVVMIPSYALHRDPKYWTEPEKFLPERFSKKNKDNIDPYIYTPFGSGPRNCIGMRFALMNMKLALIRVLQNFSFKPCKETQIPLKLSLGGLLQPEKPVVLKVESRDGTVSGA

## C=CC(=O)O[C@H]1Cc2cc3ccc(=O)oc3cc2OC1(C)C [Compound 8, (7S)-(+)-Acrylic acid, 8,8-dimethyl-2-oxo-6,7-dihydro-2H,8H-pyrano [3,2-g]chromen-7-yl ester]
CYP3A4
  CYP3A4 inhibition (in words): rarely inhibited
CYP3A4; [1]
  CYP inhibition 3A4: <1%
ERBB2
  inhibition at 10 µM: 59.2%
EGFR
  inhibitory activity against EGFR (in words): weak inhibitory activity
EGFR; 10 µM, mean of two experiments
  inhibition at 10 µM: 32.9%
CYP1A2
  CYP1A2 inhibition (in words): rarely inhibited
CYP1A2; [1]
  CYP inhibition 1A2: <1%
TEC
  inhibitory activity against TEC (in words): moderate activity
TEC; 10 µM, mean of two experiments
  inhibition at 10 µM: 54.5%
